Molecules are shown by their SMILES.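 Where inhibition never reached the appropriate level, the endpoint shown equals the highest concentration tested. Otherwise, values were interpolated linearly from a five-concentration, 48-hour dose response in 96-well plates. GI50 marks 50% less growth.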 The source made the active and inactive calls. Cut-off read from the data, not from the text of the source: active = GI50 up to about 1.1 µM and inactive = higher.

These results are taken from ChEMBL document CHEMBL1201862, “PubChem BioAssay data set” (2004).

Among the test systems are ACHN; BT-549; CAKI-1; CCRF-CEM; COLO 205; DU-145; HCC 2998; HCT-116; HOP-62; HT-29; KM12; LOX IMVI; MDA-MB-435; MDA-N; NCI-H226; NCI-H522; OVCAR-8; SK-OV-3; SW-620; NCI/ADR-RES.
What all share (assay): DTP human tumour cell line panel, 48 h

In the case of `CN(C)CCN1C(=O)c2cccc3cc([N+](=O)[O-])cc(c23)C1=O` [MITONAFIDE], the GI50 was 0.0762 µM (active) in the assay with ACHN; 0.904 µM (active) in the assay on BT-549; 0.153 µM (active) in the assay on CAKI-1; 0.163 µM (active) in the assay on CCRF-CEM; 0.191 µM (active) in the assay on COLO 205; 0.286 µM (active) in the assay with DU-145. In addition, the GI50 in the assay with HCC 2998 is 1.11 µM (active); with HCT-116, 0.261 µM (active); in the assay with HOP-62, 0.146 µM (active); in the assay with HT-29, 0.301 µM (active); in the assay on KM12 it was 0.321 µM (active); with LOX IMVI, 0.192 µM (active). Moreover, the GI50 with MDA-MB-435 was 1.75 µM (inactive); in the assay on MDA-N, 1.49 µM (inactive); in the assay on NCI-H226, 0.0789 µM (active); in the assay on NCI-H522, 0.281 µM (active); with OVCAR-8, 0.252 µM (active); with SK-OV-3, 0.198 µM (active). Further, the concentration for 50% growth inhibition (GI50) in the assay with SW-620 was 0.17 µM (active).
`O=C1CC(Cc2n[nH]c3c2CCCC3)CC(=O)N1`: the GI50 was > 100 µM (inactive) in the assay on BT-549; > 100 µM (inactive) in the assay with CAKI-1; 37.1 µM (inactive) in the assay on CCRF-CEM; > 100 µM (inactive) in the assay on COLO 205; > 100 µM (inactive) in the assay with DU-145; > 100 µM (inactive) in the assay with HCC 2998. The GI50 in the assay on HCT-116, with HOP-62, with HT-29, with KM12, in the assay with LOX IMVI and in the assay with MDA-MB-435 was > 100 µM (inactive) throughout. Further, the GI50 in the assay on MDA-N, in the assay on NCI-H226, with NCI/ADR-RES, in the assay on OVCAR-8, with SK-OV-3 and in the assay on SW-620 was > 100 µM (inactive) throughout.
As for `N/C(=N\c1ccccc1)c1ccccc1N`, the GI50 is > 100 µM (inactive) in the assay with ACHN; > 100 µM (inactive) in the assay with BT-549; > 100 µM (inactive) in the assay on CAKI-1; 40.6 µM (inactive) with CCRF-CEM; > 100 µM (inactive) with COLO 205; > 100 µM (inactive) in the assay on DU-145. In addition, the GI50 in the assay on HCC 2998, in the assay with HCT-116, in the assay on HOP-62, in the assay on HT-29, in the assay with KM12 and in the assay on LOX IMVI was > 100 µM (inactive) throughout. For the same compound, the GI50 with MDA-MB-435, with MDA-N, in the assay on NCI-H226, in the assay on NCI/ADR-RES, in the assay on OVCAR-8 and with SK-OV-3 was > 100 µM (inactive) each time. Also, the GI50 in the assay with SW-620 was > 100 µM (inactive).
Consider `CCN(CC)C(=S)SC(C(=O)Nc1nnc(-c2ccccc2)o1)c1ccccc1` (configuration not stated), for which the GI50 is 17.4 µM (inactive) in the assay with ACHN; 13.1 µM (inactive) in the assay on BT-549; 19.4 µM (inactive) in the assay on CAKI-1; 30.3 µM (inactive) in the assay with COLO 205; 17.9 µM (inactive) with DU-145; 16 µM (inactive) in the assay on HCT-116. Further, the GI50 with HOP-62 was 20.9 µM (inactive); with HT-29, 17.9 µM (inactive); in the assay with KM12 it was 20.2 µM (inactive); in the assay on LOX IMVI, 4.23 µM (inactive); in the assay with MDA-MB-435, 17.1 µM (inactive); in the assay on MDA-N, 16.6 µM (inactive). Further, the GI50 was 24.7 µM (inactive) with NCI-H226; 17.8 µM (inactive) in the assay with NCI-H522; 4.24 µM (inactive) in the assay with NCI/ADR-RES; 28.8 µM (inactive) in the assay with OVCAR-8; 32.4 µM (inactive) in the assay on SK-OV-3; 28.7 µM (inactive) in the assay with SW-620.
As to `COc1ccc(-c2nc(O)c3ccccc3n2)cc1OC`, the GI50 is 64 µM (inactive) in the assay on BT-549; > 100 µM (inactive) with CAKI-1; > 100 µM (inactive) in the assay with CCRF-CEM; > 100 µM (inactive) in the assay with COLO 205; > 100 µM (inactive) in the assay on DU-145; > 100 µM (inactive) with HCC 2998. Also, the GI50 in the assay with HCT-116 is > 100 µM (inactive); in the assay on HOP-62 it was 33.8 µM (inactive); with HT-29, > 100 µM (inactive); with KM12, > 100 µM (inactive); in the assay with MDA-MB-435, > 100 µM (inactive); with MDA-N, > 100 µM (inactive). The GI50 with NCI-H226 was 18.4 µM (inactive); in the assay on NCI/ADR-RES, 28.2 µM (inactive); with OVCAR-8, 24.4 µM (inactive); in the assay with SK-OV-3, 34.2 µM (inactive); in the assay on SW-620 it was > 100 µM (inactive).
For the compound `C[N+](C)(N)Cc1nc(-c2ccc(Cl)cc2)no1`, the GI50 in the assay with ACHN was > 100 µM (inactive); in the assay on BT-549, > 100 µM (inactive); with CAKI-1, > 100 µM (inactive); in the assay with CCRF-CEM it was 94.8 µM (inactive); in the assay on COLO 205, > 100 µM (inactive); in the assay with DU-145, > 100 µM (inactive). Besides, the GI50 in the assay with HCT-116 is > 100 µM (inactive); in the assay with HOP-62, 88.9 µM (inactive); with HT-29, > 100 µM (inactive); in the assay with KM12, > 100 µM (inactive); with LOX IMVI, > 100 µM (inactive); with MDA-MB-435, > 100 µM (inactive). In addition, the GI50 with MDA-N, in the assay with NCI-H226, with NCI-H522, in the assay with NCI/ADR-RES, with OVCAR-8 and in the assay with SK-OV-3 was > 100 µM (inactive) throughout. For the same compound, the GI50 in the assay with SW-620 was > 100 µM (inactive).
Take `CC(CC(N)C(=O)O)C(=O)O` (configuration not stated): the GI50 in the assay on ACHN, in the assay on BT-549, with CAKI-1, in the assay with CCRF-CEM, in the assay on DU-145 and in the assay with HCT-116 was > 100 µM (inactive) each time. The GI50 with HOP-62, in the assay on HT-29, with KM12, in the assay on LOX IMVI, in the assay with MDA-MB-435 and in the assay with MDA-N was > 100 µM (inactive) each time. Moreover, the GI50 with NCI-H226, in the assay on NCI-H522, in the assay on NCI/ADR-RES, with OVCAR-8 and in the assay on SW-620 was > 100 µM (inactive) in each case.
In the case of `COC(=O)[C@]1(Cc2ccc3ccccc3c2)CCCCCCN1C(=O)c1ccccc1`, the GI50 with ACHN is > 34.4 µM (inactive); in the assay with BT-549, > 39.5 µM (inactive); in the assay on CCRF-CEM it was > 23.9 µM (inactive); in the assay on COLO 205 it was 11.4 µM (inactive); in the assay with DU-145, > 43.6 µM (inactive); with HCC 2998, > 34 µM (inactive). Besides, the GI50 is > 25.4 µM (inactive) in the assay on HCT-116; > 30.1 µM (inactive) in the assay with HOP-62; > 28.2 µM (inactive) in the assay with HT-29; > 34.1 µM (inactive) in the assay with KM12; 16.7 µM (inactive) in the assay with LOX IMVI; > 37.2 µM (inactive) in the assay on MDA-MB-435. Besides, the GI50 in the assay with MDA-N was > 38 µM (inactive); with NCI-H226, > 37.9 µM (inactive); with NCI/ADR-RES, > 34 µM (inactive); in the assay on OVCAR-8, > 33.3 µM (inactive); in the assay with SK-OV-3, > 49.1 µM (inactive); with SW-620, > 40.8 µM (inactive).
As for `COc1ccc(C(=C(Cl)c2ccccc2)c2ccc(OC)cc2)cc1`, the GI50 with ACHN, with BT-549, in the assay with CAKI-1, in the assay on CCRF-CEM, in the assay on COLO 205 and with DU-145 was > 100 µM (inactive) each time. In addition, the GI50 in the assay with HCT-116 is 48.1 µM (inactive); in the assay with HOP-62, > 100 µM (inactive); with HT-29, 11.9 µM (inactive); in the assay on KM12 it was > 100 µM (inactive); in the assay with LOX IMVI, > 100 µM (inactive); in the assay on MDA-MB-435, > 100 µM (inactive). Besides, the GI50 was > 100 µM (inactive) in the assay on MDA-N; > 100 µM (inactive) in the assay on NCI-H226; 84.3 µM (inactive) in the assay with NCI-H522; > 100 µM (inactive) in the assay on NCI/ADR-RES; > 100 µM (inactive) in the assay with OVCAR-8; > 100 µM (inactive) in the assay on SK-OV-3. Moreover, the GI50 with SW-620 is > 100 µM (inactive).
On to `Cc1ccc(N)cc1.O=S(=O)(O)/C(=C\c1ccccc1)c1ccccc1`, for which the GI50 in the assay with ACHN, in the assay with BT-549, in the assay with CAKI-1, with CCRF-CEM, in the assay on COLO 205 and in the assay with DU-145 was > 100 µM (inactive) in each case. In addition, the GI50 was > 100 µM (inactive) with HCT-116; > 100 µM (inactive) in the assay with HOP-62; > 100 µM (inactive) in the assay on HT-29; 71.8 µM (inactive) in the assay with KM12; > 100 µM (inactive) in the assay on LOX IMVI; > 100 µM (inactive) with MDA-MB-435. Moreover, the GI50 in the assay with MDA-N, with NCI-H226, with NCI-H522, with NCI/ADR-RES, in the assay on OVCAR-8 and in the assay on SK-OV-3 was > 100 µM (inactive) throughout. For the same compound, the GI50 in the assay on SW-620 was > 100 µM (inactive).
For the compound `O=C1NC(=O)C2(CCC(O)C2)c2cc[n+]([O-])cc21` (configuration not stated), the GI50 with ACHN, in the assay with BT-549, with CAKI-1, in the assay on CCRF-CEM, in the assay on COLO 205 and in the assay on DU-145 was > 100 µM (inactive) throughout. The GI50 in the assay with HCC 2998, in the assay on HCT-116, with HOP-62, in the assay with HT-29, in the assay with KM12 and in the assay on LOX IMVI was > 100 µM (inactive) in each case. The GI50 in the assay on MDA-MB-435, with MDA-N, in the assay on NCI-H226, with NCI-H522, with OVCAR-8 and with SK-OV-3 was > 100 µM (inactive) throughout. In the assay with SW-620, the GI50 was > 100 µM (inactive).

The term GI50 denotes the concentration that inhibits growth by half.
